This passage reports Kd results from paper PMC4006730, “Trans-spliced Heat Shock Protein 90 Modulates Encystation in Giardia lamblia” (PLoS Neglected Tropical Diseases, 2014).

Holding throughout (type): binding
The target of assay [1] is T1, GlHsp90 (trans-spliced full-length heat shock protein 90) (Giardia duodenalis, UniProt A0A644F9H9).
T1 construct: gene GL50803_0098054; full length Hsp90, N terminus 6x His-tag (Methods text says purified HspN)
Description: intrinsic fluorescence quenching; also ATPase by TLC with radiolabelled ATP (Km […]).

The target of assay [2] is T1, GlHsp90 (trans-spliced full-length heat shock protein 90). Description: intrinsic tryptophan fluorescence quenching (ex […] nm, em […] nm), single-site fit.
Assay [3] has the same target. Description: intrinsic fluorescence quenching; also inhibits the purified ATPase (EC50 […]).

By Kd is commonly meant the constant that tells how readily two partners part at equilibrium. Read a high Kd as lower affinity.

T1 sequence (A0A644F9H9 entry or part of it): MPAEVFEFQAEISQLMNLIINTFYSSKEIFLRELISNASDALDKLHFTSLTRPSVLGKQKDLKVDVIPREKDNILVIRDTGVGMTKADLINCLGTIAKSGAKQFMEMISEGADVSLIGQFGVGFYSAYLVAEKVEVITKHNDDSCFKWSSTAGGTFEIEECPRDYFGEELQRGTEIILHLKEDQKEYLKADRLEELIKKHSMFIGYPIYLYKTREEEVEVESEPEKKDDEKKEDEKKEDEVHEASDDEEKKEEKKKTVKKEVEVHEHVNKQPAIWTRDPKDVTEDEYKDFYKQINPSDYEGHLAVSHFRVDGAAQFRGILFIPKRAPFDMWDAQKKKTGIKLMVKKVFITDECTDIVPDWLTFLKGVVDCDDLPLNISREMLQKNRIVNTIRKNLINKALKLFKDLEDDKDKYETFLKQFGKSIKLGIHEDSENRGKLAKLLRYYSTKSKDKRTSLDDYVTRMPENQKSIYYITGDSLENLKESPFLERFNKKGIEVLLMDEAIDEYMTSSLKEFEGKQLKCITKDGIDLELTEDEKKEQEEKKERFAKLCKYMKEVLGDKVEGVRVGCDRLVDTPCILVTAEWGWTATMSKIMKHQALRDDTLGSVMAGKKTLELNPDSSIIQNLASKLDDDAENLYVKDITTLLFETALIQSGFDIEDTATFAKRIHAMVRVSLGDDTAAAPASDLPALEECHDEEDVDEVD

In assay [1], `Nc1ncnc2c1ncn2[C@@H]1O[C@H](COP(=O)(O)OP(=O)(O)OP(=O)(O)O)[C@@H](O)[C@H]1O` [ATP] came in with a Kd of 630 µM.

For the compound `COC1=C2C[C@@H](C)C[C@H](OC)[C@H](O)[C@@H](C)/C=C(\C)[C@H](OC(N)=O)[C@@H](OC)/C=C\C=C(/C)C(=O)NC(=CC1=O)C2=O` [GA, Geldanamycin], the affinity in assay [2], expressed as Kd, was 1.5 µM.

Take `C=CCNC1=C2C[C@@H](C)C[C@H](OC)[C@H](O)[C@@H](C)/C=C(\C)[C@H](OC(N)=O)[C@@H](OC)/C=C\C=C(/C)C(=O)NC(=CC1=O)C2=O` [17AAG]: in assay [3], the Kd came out at 17.1 µM.
